Data on 15 molecules can be found in doi:10.1101/2025.05.10.653276 (bioRxiv, 2025).

The nature of one data set: in vitro. As to conditions: human.
Data set [1] deals with B. ovis. Description: microbe, parasite or virus in culture. In kind it is cell-based. As to conditions: Brucella ovis.
The subject of data set [2] is B. ovis. Description: microbe, parasite or virus in culture. Type of data set: cell-based, Brucella ovis. As to conditions: for IC50: Brucella ovis.
The subject of data set [3] is B. ovis. In kind it is cell-based, Brucella ovis.
Data set [4] deals with B. ovis. In kind it is cell-based, Brucella ovis. This is another data set of the same source.
The subject of data set [5] is THP-1 cells.
Data set [6] has as its system B. abortus. Description: microbe, parasite or virus in culture. In kind it is cell-based. The note with it: Brucella abortus, THP-1, 48 h, read-out: IC50, intracellular B. abortus.
The test system of data set [7] is B. abortus. Description: microbe, parasite or virus in culture. In kind it is cell-based, Brucella abortus. As to conditions: for IC50: Brucella abortus, 48 h, read-out: IC50, axenic B. abortus WT (Fig. S6B).
Data set [8] relates to B. abortus. Type of data set: cell-based, Brucella abortus.
The test system of another data set is L-type Ca^2+ channels. As to conditions: read-out: Reported IC50 for L-type Ca^2+ channels; cited from earlier work.
The test system of data set [9] is THP-1 cells. Type of data set: cell-based, human.
Data set [10] relates to B. abortus. In kind it is cell-based, Brucella abortus. The source holds these as a separate data set.
Data set [11] concerns B. ovis. In kind it is cell-based, Brucella ovis. This is another data set of the same source.
Where [12] appears, read: THP-1, read-out: Intracellular IC50.
Where [13] appears, read: THP-1, 48 h, read-out: IC50, intracellular B. ovis growth.
Where [14] appears, read: 48 h, read-out: IC50, axenic B. ovis growth.

Like-named read-outs stand apart in the source and are kept apart here.

Usually IC50 stands for the concentration needed to halve the response being measured. The molecule `N[C@@H]1C[C@H]1c1ccccc1` (racemic) [Tranylcypromine] showed a CC50 in “in vitro” above 50 µM. The concentration for half-maximal inhibition (IC50) in the data set on B. ovis [1] (setting [12]) and with B. ovis [2] (read-out: Axenic IC50) was above 50 µM throughout.

Consider `O=C1CCc2ccc(OCCCCN3CCN(c4cccc(Cl)c4Cl)CC3)cc2N1` [Aripiprazole], for which the CC50 in “in vitro” was found to be 12 µM.

The molecule `c1ccc(-c2ccc(C(c3ccccc3)n3ccnc3)cc2)cc1` (stereo not shown) [Bifonazole] registered a CC50 in “in vitro” above 50 µM. The values for the 50% inhibitory concentration (IC50) in the data set with B. ovis [1] (setting [12]) and with B. ovis [2] (read-out: Axenic IC50) were 14 µM and 4 µM, respectively.

As for `C[C@H](CCC(=O)NCCC[N+](C)(C)CCCS(=O)(=O)[O-])[C@H]1CC[C@H]2[C@@H]3[C@H](O)C[C@@H]4C[C@H](O)CC[C@]4(C)[C@H]3C[C@H](O)[C@]12C` [CHAPS], the “Sensitivity of WT B. ovis on TSA blood plates” value (“Sensitivity of WT B. ovis” for short) in the data set on B. ovis [3] is reported as “highly sensitive”.

Molecule `COCCOC(=O)C1=C(C)NC(C)=C(C(=O)OC/C=C/c2ccccc2)C1c1cccc([N+](=O)[O-])c1` (stereo not shown) [Cilnidipine] came in with a CC50 in the data set “in vitro” above 50 µM. Also, the “Growth of WT B. ovis in liquid culture (kinetic growth assay)” value in the data set on B. ovis [4] is “failed to grow”. Also, the IC50 was 2.5 µM with B. ovis [1] (setting [13]); 2 µM with B. ovis [1] (setting [12]); 5.09 µM with B. ovis [2] (setting [14]); 5 µM in the data set with B. ovis [2] (read-out: Axenic IC50); 13.5 µM with B. abortus [6]; above 25 µM with B. abortus [7]. For the same molecule, the “Host cytotoxicity in B. ovis-infected THP-1 cells” value with THP-1 cells [5] was “not due to host cytotoxicity”. For the same molecule, in the data set on B. ovis [2], the “Concentrations inhibiting B. ovis growth in complex liquid broth” value is on record as “above 5 μM”. The “Sensitivity of WT and ΔbepE B. abortus in axenic conditions” value in the data set on B. abortus [7] is given as “insensitive”. Besides, the “CFU recovery of ΔbepE B. abortus relative to wild-type in treated THP-1 cells” value in the data set on B. abortus [8] is “significant reduction in CFU recovery”.

Turning to `OCCN(CCO)c1nc(N2CCCCC2)c2nc(N(CCO)CCO)nc(N3CCCCC3)c2n1` [Dipyridamole], in the data set “in vitro”, the CC50 was determined as 41 µM. Also, the half-inhibitory concentration (IC50) in the data set with B. ovis [1] (setting [12]) and in the data set on B. ovis [2] (read-out: Axenic IC50) was above 50 µM throughout.

On to `CCCCN(CCCC)CCC(O)c1cc2c(Cl)cc(Cl)cc2c2cc(C(F)(F)F)ccc12` (stereo not shown) [Halofantrine], for which the CC50 in the data set “in vitro” is above 50 µM. The half-maximal inhibitory concentration (IC50) with B. ovis [1] (setting [12]) is above 50 µM; in the data set with B. ovis [2] (read-out: Axenic IC50) it was 11 µM.

In turn, `COc1ccc(CN2CCN(C(c3ccc(F)cc3)c3ccc(F)cc3)CC2)c(OC)c1OC` [Lomerizine] yielded a CC50 in the data set “in vitro” of 50 µM. Moreover, the IC50 with B. ovis [1] (setting [12]) was 9 µM; in the data set on B. ovis [2] (read-out: Axenic IC50), above 50 µM.

In “in vitro”, `COC(=O)C1=C(C)NC(C)=C(C(=O)OCCN(C)Cc2ccccc2)C1c1cccc([N+](=O)[O-])c1` (stereo not shown) [Nicardipine] came in with a CC50 of 49 µM. In the data set with B. ovis [4], the “Growth of WT B. ovis in liquid culture (kinetic growth assay)” value is “modest lag”. Moreover, the IC50 in the data set with B. ovis [1] (setting [13]) is 2.3 µM; in the data set on B. ovis [1] (setting [12]), 2 µM; in the data set on B. ovis [2] (setting [14]), above 25 µM; with B. ovis [2] (read-out: Axenic IC50), above 50 µM; in the data set with B. abortus [6], 4.4 µM; in the data set on B. abortus [7], above 25 µM. Besides, in the data set with L-type Ca^2+ channels, the IC50 is around 25 µM. In the data set with THP-1 cells [5], the “Host cytotoxicity in B. ovis-infected THP-1 cells” value is recorded as “not due to host cytotoxicity”. Further, in the data set with B. ovis [2], the “Effect on terminal density of B. ovis in axenic culture” value is listed as “did not affect the terminal density”. Also, the “Sensitivity of WT and ΔbepE B. abortus in axenic conditions” value in the data set with B. abortus [7] is listed as “insensitive”. For the same molecule, the “WT B. abortus CFUs recovered from treated THP-1 cells compared to untreated controls” value in the data set on B. abortus [8] is on record as “significantly fewer”. Further, the “Increase in intracellular calcium and manganese levels” value in the data set on THP-1 cells [9] is on record as 20–40%.

`CCOc1ccc(NC(C)=O)cc1` [Phenacetin] displayed a CC50 in “in vitro” above 50 µM. The IC50 with B. ovis [1] (setting [12]) and with B. ovis [2] (read-out: Axenic IC50) was above 50 µM each time.

`CC(=O)SCC(Cc1ccccc1)C(=O)NCC(=O)OCc1ccccc1` (stereo not shown) [Racecadotril]: the CC50 in the data set “in vitro” is above 50 µM. Besides, the concentration for half-maximal inhibition (IC50) in the data set on B. ovis [1] (setting [12]) and with B. ovis [2] (read-out: Axenic IC50) was above 50 µM throughout.

Take `CCCCCCCCCCCCOS(=O)(=O)[O-].[Na+]` [SDS, sodium dodecyl sulfate]: the “Sensitivity of WT B. ovis” value with B. ovis [3] was “highly sensitive”.

As for `C[C@H](CCC(=O)O)[C@H]1CC[C@H]2[C@@H]3CC[C@@H]4C[C@H](O)CC[C@]4(C)[C@H]3C[C@H](O)[C@]12C` [deoxycholate], the “Sensitivity of WT B. ovis” value in the data set on B. ovis [3] is on record as “highly sensitive”. In addition, in the data set on B. abortus [7], the “IC50 (B. abortus strain WT)” value is 0.067%, the “IC50 (B. abortus strain ΔbepE glmS::bepDE)” value was found to be 0.052% and the “IC50 (B. abortus strain ΔbepE)” value is given as 0.021%. For the same molecule, in the data set with B. abortus [10], the “Growth of WT B. abortus on solid media” value is listed as “modestly impaired WT growth” and the “Growth of ΔbepE B. abortus on solid media” value was “unable to grow”.

For `COC(=O)C1=C(C)NC(C)=C(C(=O)OC)C1c1ccccc1[N+](=O)[O-]` [nifedipine], in the data set with B. ovis [11], the “Hit in B. ovis intracellular screen” value is on record as “neither compound emerged as a hit”.

For the molecule `COc1ccc(CCN(C)CCCC(C#N)(c2ccc(OC)c(OC)c2)C(C)C)cc1OC` (stereo not shown) [verapamil], the “Hit in B. ovis intracellular screen” value in the data set on B. ovis [11] is “neither compound emerged as a hit”.
